How the values were obtained:
[1] = test system: Il10-Thy1.1 reporter in 10BiT BMDCs; experiment: Il10-Thy1.1 reporter gene detection in 10BiT BMDCs; type: cell-based, mouse; conditions: 2 days treatment (0.5 μM), zymosan 18 hr
Experimental: (§1) Bone marrow-derived DCs were differentiated from C57BL/6 bone marrow in the presence of GM-CSF-conditioned media. CD11c^+ CX3CR1^hi myeloid cells and CD11c^+ CX3CR1^− DCs were isolated from the small intestine lamina propria of Cx3cr1^eGFP/+ mice (12). Detection of cell-surface Thy1.1 expression on BMDCs from 10BiT reporter mice was conducted as described previously (24). Cell viability was estimated by change in total cellular ATP levels using CellTiterGlo assays (Promega). Preparation of recombinant SIK proteins and IC50 measurements were conducted as described previously (21). Total RNA was extracted using a NucleoSpin 96 RNA isolation kit (Macherey-Nagel) followed by cDNA synthesis and multiplex RT-PCR using a microfluidic dynamic array (Fluidigm). The concentrations of TNF-α, IL-6, IL-10, IL-12p40, IL-1β and RANTES in culture supernatants were detected using a FlexSet Cytometric bead array (BD Biosciences). Alternatively, IL-10 secretion was quantified using ELISA (BD Biosciences) or AlphaLISA (PerkinElmer) assays. NO production was estimated based on nitrate content in culture medium using the Greiss reagent.
Preparation of BMDCs from 10BiT reporter mice expressing an il10-Thy1.1 transgene, SIK inhibitor treatment and zymosan stimulation was conducted as described above. […]

BMDCs = experiment: Multiplex qPCR of transcripts in stimulated BMDCs; type: cell-based, mouse; conditions: 2 days pre-treatment, 4 hr LPS, R848 or zymosan
Experimental: as §1
C57BL/6 mice were euthanized and bone marrow harvested from femurs and tibias as described previously (Graham D B, et al. (2007) An ITAM-signaling pathway controls cross-presentation of particulate but not soluble antigens in dendritic cells. The Journal of experimental medicine 204(12):2889-2897). BMDCs were differentiated DMEM supplemented with 2 mM GlutaMAX, 10% (vol/vol) FBS, penicillin, streptomycin and 2% mouse GM-CSF conditioned media derived from TOPO cells. Cultures were differentiated for 7 days and routinely analyzed for >90% CD11c (APC anti-CD11c clone HL3; BD Biosciences) positivity by flow cytometry before use in experiments. Lentiviral transduction of bone marrow cultures was conducted by addition of 293T culture supernatants containing lentiviral particles encoding the CREB dependent luciferase reporter construct or CRTC3 targeting or control shRNAs one day post-isolation. Stable integration of lentiviral shRNA constructs was selected by addition of puromycin (3 μg/mL) on day 4 post-transduction. After 2 days, stably transduced BMDCs were released from selection and used in subsequent assays. […]
Total RNA was extracted using a NucleoSpin 96 RNA isolation kit (Macherey-Nagel). […] Relative gene expression was calculated from Ct values and normalized against ACTB mRNA levels as described previously (Pfaffl MW (2001) A new mathematical model for relative quantification in real-time RT-PCR. Nucleic acids research 29(9):e45). […]

human MΦs or DCs = experiment: Cytokine production by human macrophages and dendritic cells from PBMCs (ELISA); type: cell-based; conditions: 0.5 μM, 24 hr, zymosan 18 hr
Experimental: Heparinized blood from healthy donors was obtained from Research Blood Components. Peripheral blood mononuclear cells (PBMCs) were obtained by density centrifugation of blood diluted 50% (vol/vol) with PBS over Ficoll-Paque (Pharmacia Biotech). PBMCs were further purified by plastic adherence for 1 hr and washed 5× with PBS. Monocytes within the PBMC pool were differentiated towards DCs in X-VIVO media (Lonza) supplemented with IL-4 (50 ng/mL, R&D Systems) and GM-CSF (50 ng/mL, R&D Systems) or macrophages in X-VIVO media supplemented with GM-CSF (5 ng/mL) and IFN-γ (5 ng/mL; PeproTech) for 7 days as described previously (Smeekens S P, et al. (2013) Functional genomics identifies type I interferon pathway as central for host defense against Candida albicans. Nature communications 4:1342). After third day, half of the culture medium was replaced by fresh DC/macrophages differentiation medium.
After stimulation of cells with microbial ligands, the culture medium was removed, clarified by centrifugation for 10 min at 14,000×g, and the concentration of TNF-α, IL-6, IL-10, IL-12p40, IL-1β and RANTES were measured using FlexSet Cytokine Bead Array (BD Biosciences) according to the manufacturer's instructions. Where indicated, ELISAs were used to detect IL-10 and IL-12p70 (BD Biosciences) according to the manufacturer's instructions. […]

Src = Src (Homo sapiens, UniProt P12931); conditions: cited from earlier work
Sequence of Src (P12931 whole entry, species assumed): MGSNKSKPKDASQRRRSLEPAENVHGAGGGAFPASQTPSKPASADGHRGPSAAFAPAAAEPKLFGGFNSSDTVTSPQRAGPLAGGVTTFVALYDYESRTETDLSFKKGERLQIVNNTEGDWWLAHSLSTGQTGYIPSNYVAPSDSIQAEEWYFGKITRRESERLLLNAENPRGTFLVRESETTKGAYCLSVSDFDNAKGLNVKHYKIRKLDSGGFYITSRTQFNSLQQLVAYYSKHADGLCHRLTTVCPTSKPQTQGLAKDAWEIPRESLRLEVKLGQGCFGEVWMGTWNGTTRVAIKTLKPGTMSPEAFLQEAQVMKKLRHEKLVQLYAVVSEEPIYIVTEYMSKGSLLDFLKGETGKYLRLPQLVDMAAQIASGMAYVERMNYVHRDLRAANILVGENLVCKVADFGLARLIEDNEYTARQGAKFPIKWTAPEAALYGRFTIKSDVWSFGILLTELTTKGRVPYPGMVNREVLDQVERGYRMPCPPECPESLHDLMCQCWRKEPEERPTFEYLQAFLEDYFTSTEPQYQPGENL

SGK = experiment: Protein kinase assay against SGK (selectivity); type: biochemical; conditions: DMSO set to 100%

Compound	enhancement of the fraction of BMDCs expressing Il10 following zymosan stimulation [1]	IL-10 mRNA levels (BMDCs)	abundance of Arg1 and Nos2 transcripts (BMDCs)	IL-10 production by human MΦs or DCs (human MΦs or DCs)	IL-12p70 secretion by human MΦs or DCs (human MΦs or DCs)	Src activity remaining (Src)	Activity of protein kinase treated with 0.1 μM of I-1 (% control (DMSO)) SGK (SGK; 0.1 μM)	Activity of protein kinase treated with 1 μM of I-1 (% control (DMSO)) SGK (SGK; 1 μM)
COc1ccc(N(C(=O)Nc2c(C)cccc2C)c2cc(Nc3ccc(N4CCN(C)CC4)cc3)ncn2)c(OC)c1 [HG-9-91-01]	more than 5 fold	robustly enhanced	significantly blunted	enhanced IL-10 production	dramatically reducing IL-12p70 secretion	less than 4%		
Cc1cccc(C)c1NC(=O)N1C/C=C\COc2cccc(c2)Nc2cc1ncn2 [I-1]							96 % control (DMSO)	100 % control (DMSO)

Reference: US10265321B2, “Uses of salt-inducible kinase (SIK) inhibitors” (Dana-Farber Cancer Institute, Inc., priority 2014, dated 2019)
